Results from ChEMBL document CHEMBL1131965, “Isoquinoline-6-carboxamides as potent and selective anti-human cytomegalovirus (HCMV) inhibitors” (Bioorg Med Chem Lett, 1999).
In brackets after ≈: the same amount, converted by molar mass.

What was measured:
[1] = tested on: Hs68; experiment: Cytotoxicity in Hs 68 cell line by inhibition of cell proliferation; type: functional; details: Homo sapiens
[2] = tested on: Hs68; experiment: Anti-HCMV activity in Hs 68 cell line by plaque reduction assay; type: functional, cell-based; details: Homo sapiens

## COc1ccccc1CNC(=O)c1ccc2ccccc2n1
[1]
  CC50: 10 µg/mL (≈ 34.2 µM)
[2]
  IC50: > 25 µg/mL

## O=C(O)c1cc2ccncc2cn1
[2]
  IC50: 0.5 µg/mL (≈ 2.87 µM)
